Source: US12691115B2, “Methods for treatment of obesity, atherosclerosis, and thrombosis” (Marshall University Research Corporation, priority 2019, dated 2026)
“Also recorded” adds a separate entry of the source. Structures can show the parent of a compound that is named as a salt.

Assays:
[1] = tested on: WT mice; test: FeCl3 thrombosis model, bolus injection via jugular vein catheter 5 minutes after thrombus initiation; type: in vivo, mouse
Experimental: (§1) Murine carotid artery thrombosis model and tail bleeding assay. Detailed ferric chloride (FeCl3) induced carotid artery thrombosis model has been described before. Vessel injury was induced by 7.5% FeCl3 solution to the carotid artery for 1 minute. […] The endpoints were set as follows: 1) blood flow has ceased for >30 seconds; or 2) occlusion is not seen after 30 minutes of FeCl3 injury. In this case, 30 minutes was assigned to that mouse for the statistical analysis. In some experiments, a jugular vein catheter prepared with P-10 tubing was placed for drug administration after 5 minutes of thrombus initiation. Thrombus formation was continually monitored using the endpoints mentioned above. Tail bleeding assay was either conducted on mice immediately after the thrombosis study or on mice that were not used for the in vivo thrombosis study.

[2] = tested on: WT mice; conditions: mouse, in vivo; for mice considered to have bleeding side effects: male, 1 week
Experimental: as §1, with “before.” for “before. Vessel injury was induced by 7.5% FeCl3 solution to the carotid artery for 1 minute.”, “In this case, 30 minutes was assigned to that mouse for the statistical analysis.” left out, “study. […] Tail bleeding assay was conducted on these mice immediately after the thrombosis study.” for “study.”

[3] = tested on: WT mice; test: 7.5% FeCl3 induced carotid artery thrombosis model, drug given before injury; type: in vivo, mouse; conditions: for lowest effective dose with significant antithrombotic effect: gavage for one week; for lowest dose in inhibiting mouse thrombosis: in vivo
Experimental: as §1, with “before.” for “before. Vessel injury was induced by 7.5% FeCl3 solution to the carotid artery for 1 minute.”, “In this case, 30 minutes was assigned to that mouse for the statistical analysis.” left out, “study. […] Tail bleeding assay was conducted on these mice immediately after the thrombosis study.” for “study.”

[4] = cited from earlier work
[5] = tested on: platelets; conditions: cited from earlier work
[6] = tested on: Apoe^−/− mice; test: Apoe−/− mice on WD gavage fed with TPI: liver fat accumulation and atherosclerotic lesions (Oil Red O); type: in vivo, mouse; conditions: gavage 60 μg/Kg/day, 4 weeks, vs saline
Description: As mentioned above, TYMP enhances platelet activation in vitro and promotes thrombosis in vivo, making TYMP a potential target for antithrombotic therapy. […] Age-matched Apoe^−/− mice on WD fed with saline were used as controls.

[7] = as component of Lonsurf (TAS-102); no systemic bleeding observed; cited from earlier work
[8] = tested on: C57Bl6 wild type mice; test: Western diet induced body weight gain; type: in vivo, mouse; conditions: gavage 1 mg/kg/day, western diet TD.88137, vs saline, hydrochloride
Description: To determine if inhibition of TYMP could attenuate or inhibit obesity in vivo, C57Bl6 wild type mice were fed with a western diet (TD.88137, 42% calories from fat), started from 6 to 8 […], to facilitate their weight gain. […] Mice received the same volume of saline feeding as a control. Body weight gain was monitored weekly, and data were presented as mean of the accumulated weight gain from each mice at each week. N=3 in the saline-feeding group, and 2 in the TPI-feeding group.

[9] = tested on: platelets in PRP; test: Mouse platelet aggregation assay (PRP); type: cell-based
Description: Mouse platelet aggregation assay. […] Platelet-rich plasma (PRP) was used for platelet aggregation assay. […] Same volume of vehicle (DMSO or saline)-treated platelets was used as controls.

[10] = tested on: platelets; test: Cellix flow chamber-based platelet adhesion and aggregation assay; type: cell-based, mouse
Experimental: Cellix flow chamber-based platelet adhesion and aggregation assay. Cellix flow chambers were coated with collagen 10 μg/mL in PBS. Whole blood was drawn from mouse IVC using 0.109 M sodium citrate as an anticoagulant, stained with Rhodamine 6G, and then used for the flow chamber mediated adhesion and aggregation assay. Some of the whole blood was treated with or without TPI before it was perfused into the chamber.

[11] = tested on: WT mice fed a western diet; test: FeCl3 thrombosis model under hyperlipidemia (western diet); type: in vivo, mouse; conditions: TPI 1 mg/kg for one week, WD 4 weeks
Description: Examination of the effect of TYMP inhibition on thrombosis under hyperlipidemia. WT mice were fed a western diet (WD, TD.88137) for a total of 4 weeks. […] These mice were then subjected to the thrombosis study using the 7.5% FeCl3 induced thrombosis model.

[12] = tested on: AKT; test: ADP-induced AKT phosphorylation in platelets (immunoblot); type: cell-based, mouse; conditions: 50 μM TPI, 2.5 μM ADP, especially the second phase
Experimental: Evaluation of platelet signaling activation. Platelets in PRP were stimulated with 2.5 μM ADP for 0, 1, 3, and 5 minutes, then lysed with radioimmunoprecipitation assay (RIPA) buffer containing proteinase/phosphatase inhibitor cocktail. The lysates were subsequently used for AKT activation immunoblotting assays. ADP-stimulated p-selectin expression was analyzed by flow cytometry.

[13] = target: T1, TYMP and Lyn (Homo sapiens, UniProt P19971); test: Association of TYMP and Lyn (pull-down, Cos-7 cells); type: binding; conditions: TPI treatment
T1 construct: overexpressing full length human TYMP and Lyn in Cos-7 cells; expressed in transfected cells; host or cells: COS-7
T1 sequence (P19971 11-482): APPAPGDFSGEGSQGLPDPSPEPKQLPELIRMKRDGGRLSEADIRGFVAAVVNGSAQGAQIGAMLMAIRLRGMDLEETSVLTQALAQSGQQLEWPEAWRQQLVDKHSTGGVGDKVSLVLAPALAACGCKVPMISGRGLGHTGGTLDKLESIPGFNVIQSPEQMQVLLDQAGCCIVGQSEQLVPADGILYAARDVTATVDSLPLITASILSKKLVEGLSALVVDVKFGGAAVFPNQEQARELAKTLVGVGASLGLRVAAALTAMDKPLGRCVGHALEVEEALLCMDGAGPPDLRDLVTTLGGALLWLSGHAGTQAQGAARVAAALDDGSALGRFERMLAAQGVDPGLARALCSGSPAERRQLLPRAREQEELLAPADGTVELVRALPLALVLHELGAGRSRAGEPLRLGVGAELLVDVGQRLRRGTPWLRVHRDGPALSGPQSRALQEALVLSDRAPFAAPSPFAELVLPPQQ
Description: Generation of fusion proteins to determine that TYMP binds to LYN through the SH3 binding domain. Human SH3 domain nucleotides (hLynSH3, amino acids 63-123) were amplified by PCR and cloned into a mammalian expression vector pEBG (Addgene, plasmid #22227) with an N-terminal glutathione S-transferase (GST) affinity tag (pEBG-GST-hLynSH3). A pCDNA6B/his-hTYMP plasmid vector was previously constructed. pEBG-GST-hLynSH3 and pCDNA6B/his-hTYMP plasmids were co-transfected into COS-7 cells, lysed in a Pierce™ IP Lysis Buffer (ThermoFisher Scientific), and used for GST pull down assay. Eluates were used for Western blot assay to confirm the presence of TYMP.
pEGFP-N1-human Lyn-GFP and pCDNA6B/his-hTYMP plasmids were also co-transfected into the COS-7 cells. TYMP was pulled down using immobilized Ni-NTA on magnetic sepharose beads (GE Healthcare Life Sciences) for His-tagged protein purification. His-hTYMP eluates were used for western blot assay for Lyn.

[14] = bolus 17 and 1 mg/kg TPI, 5 min after injury

tPA: tissue plasminogen activator (Activase), FDA-approved clot-busting drug
lysis of established thrombi ([1]; bolus 1 mg/kg, 5 min after vascular injury): effectively lysed
lowest effective dose on thrombolysis ([1]; bolus 5 min after injury): 0.25 to 0.5 mg/kg
thrombolytic action ([1]; tPA 0.25 and 0.125 mg/kg): no thrombolytic action

COC(=O)[C@H](c1ccccc1Cl)N1CCc2sccc2C1 [clopidogrel]
mice considered to have bleeding side effects [2]: 75%
lowest effective dose with significant antithrombotic effect [3]: 2.5 mg/kg/day
lowest dose in inhibiting mouse thrombosis [3]: 2.5 mg/kg

CC(=O)Oc1ccccc1C(=O)O [aspirin]
mice considered to have bleeding side effects [2]: 50%
inhibiting thrombosis ([3]; gavage aspirin 0.5 mg/kg/day for 7 days): no effect
lowest effective dose with significant antithrombotic effect [3]: 1 mg/kg/day
lowest dose in inhibiting mouse thrombosis [3]: 1 mg/kg

Oc1ncnc2c1ncn2[C@@H]1O[C@H](COC(c2ccccc2)(c2ccccc2)c2ccccc2)[C@@H](O)[C@H]1O [KIN59, 5′-O-tritylinosine]
thrombosis in vivo [4]: dramatically inhibited
platelet activation in vitro [5]: dramatically inhibited

[H]/N=C1\CCCN1Cc1[nH]c(=O)[nH]c(=O)c1Cl [TPI, tipiracil hydrochloride]
occlusive thrombus formation ([1]; TPI 50 μg/kg intravenous injection): did not inhibit
blood flow cessation [1, 14]: no blood flow cessation
thrombosis formation (time) [1, 14]: significantly prolonged
lowest effective dose on inhibiting the growth of the on-site thrombus ([1]; bolus 5 min after injury): 0.05 to 0.1 mg/kg
atherosclerotic plaque areas formation in aortic root [6]: attenuated
lipid accumulation in livers [6]: attenuated
systemic safety in clinical trials [7]: systemically safe
WD-induced body weight gain [8]: reduced; also recorded: decreases
mice considered to have bleeding side effects [2]: 28.5%
frequency of bleeding compared with clopidogrel-treated mice [2]: significantly decreased
ADP-induced aggregation of Tymp−/− platelets ([9]; 50 μM TPI, 2.5 μM ADP, Tymp−/− platelets): had no effect
ADP-induced WT platelet aggregation ([9]; 50 μM TPI, 2.5 μM ADP, WT platelets): attenuated
CRP-induced platelet aggregation ([9]; 50 μM TPI, 2 minutes pretreatment): completely blocked
collagen-induced platelet aggregation ([9]; WT platelets, different concentrations of TPI, collagen 1 μg/ml): dose-dependently inhibited
CRP-induced platelet shape change ([9]; dose-dependently at 250, 125 and 62.5 μM, 0.5 μg/ml CRP): inhibited
in vivo thrombosis ([3]; gavage 60 μg/kg/day for 3 days): significantly inhibited
occlusive thrombus formation in the carotid arteries ([3]; intraperitoneal 17 mg/kg once per day for three days): completely inhibited
thrombosis ([3]; intravenous injection 1.7 and 0.17 mg/kg, vs saline): significantly inhibited
effective dose (anti-thrombotic) ([3]; without significantly affecting hemostasis): ≤ 60 µg/kg/day
platelet aggregation to the collagen-coated surface ([10]; 50 μM TPI, WT whole blood, shear 65 dyn/cm^2, 3 minutes): significantly reduced
platelet adhesion to collagen ([10]; TYMP inhibition, collagen-coated flow chamber): does not affect
hyperlipidemia-enhanced thrombosis [11]: dramatically reduced
ADP-stimulated AKT phosphorylation [12]: dramatically reduced
association of TYMP and Lyn [13]: disrupted
